Source: ChEMBL document CHEMBL4699496, “Exploring efficacy of natural-derived acetylphenol scaffold inhibitors for α-glucosidase: Synthesis, in vitro and in vivo biochemical studies” (Bioorg Med Chem Lett, 2020)

Assay: Inhibition of alpha-glucosidase (unknown origin); call rule not given here
Parameters: species or system Homo sapiens

Cc1cc(C(=O)C(C)C)c(O)cc1O
IC50 (read-out: IC50): 23.7 µM

Cc1cc(C(=O)C(C)C)c(O)c(Br)c1OC(=O)c1ccc(I)cc1
IC50 (read-out: IC50): 25.4 µM

Cc1cc(C(=O)C(C)C)c(O)cc1OC(=O)c1ccccc1Cl
IC50 (read-out: IC50): 27.4 µM

CC(C)C(=O)c1ccc(OC(=O)CBr)cc1O
IC50 (read-out: IC50): 35.8 µM

CCCCCC(=O)c1cc(C)c(O)cc1O
IC50 (read-out: IC50): 66.5 µM

COc1ccc(C(=O)Oc2c(C)cc(C(=O)C(C)C)c(O)c2Br)cc1
IC50 (read-out: IC50): 27.6 µM

CCCCC(=O)c1cc(C)c(OC(=O)CI)cc1O
IC50 (read-out: IC50): 5.58 µM

Cc1cc(C(=O)C(C)C)c(O)c(Br)c1O
IC50 (read-out: IC50): 21 µM

Cc1cc(C(=O)C(C)C)c(O)cc1OC(=O)CI
IC50 (read-out: IC50): 4.27 µM

Cc1cc(C(=O)C(C)C)c(O)c(Br)c1OC(=O)c1ccc(Cl)cc1
IC50 (read-out: IC50): 24.9 µM

Cc1cc(C(=O)C(C)C)c(O)c(Br)c1OC(=O)CBr
IC50 (read-out: IC50): 11.9 µM

Cc1cc(C(=O)C(C)C)c(O)cc1OC(=O)CCl
IC50 (read-out: IC50): 140 µM

CC(C)C(=O)c1cc(Br)c(OC(=O)CI)cc1O
IC50 (read-out: IC50): 11.3 µM

Cc1cc(C(=O)C(C)C)c(O)cc1OC(=O)C(C)(C)C
IC50 (read-out: IC50): 16 µM

Cc1ccc(C(=O)Oc2c(C)cc(C(=O)C(C)C)c(O)c2Br)cc1
IC50 (read-out: IC50): 25.2 µM

CCC(=O)c1cc(C)c(O)cc1O
IC50: Not Active

CC(=O)Oc1cc(O)c(C(=O)C(C)C)cc1C
IC50: Not Active

CCCCCC(=O)c1ccc(O)cc1O
IC50 (read-out: IC50): 107 µM

CCC(=O)c1ccc(O)cc1O
IC50: Not Active

CC(C)C(=O)c1ccc(OC(=O)CCl)cc1O
IC50: Not Active

CC(=O)Oc1cc(O)c(C(=O)C(C)C)cc1Br
IC50: Not Active

O=c1c(-c2ccc(O)cc2)coc2cc(O)cc(O)c12 [GENISTEIN]
IC50 (read-out: IC50): 7.21 µM

CCCCCCCCCC(=O)Oc1cc(O)c(C(=O)C(C)C)cc1C
IC50 (read-out: IC50): 8.45 µM

Cc1cc(C(=O)C(C)C)c(O)cc1OC(=O)c1ccc(Br)cc1
IC50 (read-out: IC50): 26 µM

CC(C)C(=O)c1cc(Br)c(OC(=O)CCl)cc1O
IC50 (read-out: IC50): 143 µM

CCCC(=O)Oc1cc(O)c(C(=O)C(C)C)cc1C
IC50 (read-out: IC50): 43.2 µM

Cc1cc(C(=O)C(C)C)c(O)c(Br)c1OC(=O)c1ccc([N+](=O)[O-])cc1
IC50 (read-out: IC50): 20.6 µM

Cc1cc(C(=O)C(C)C)c(O)cc1OC(=O)c1ccc(Cl)cc1
IC50 (read-out: IC50): 10.9 µM

Cc1cc(C(=O)C(C)C)c(O)cc1OC(=O)c1ccccc1
IC50 (read-out: IC50): 14.6 µM

CCCCC(=O)c1ccc(OC(=O)CI)cc1O
IC50: Not Active

CC(C)C(=O)c1cc(Br)c(OC(=O)CBr)cc1O
IC50 (read-out: IC50): 15 µM

CCCCCCCC(=O)c1ccc(O)cc1O
IC50 (read-out: IC50): 74.6 µM

Cc1cc(C(=O)C(C)C)c(O)cc1OC(=O)CBr
IC50 (read-out: IC50): 14.9 µM

CCCCCCC(=O)c1cc(C)c(OC(=O)CI)cc1O
IC50 (read-out: IC50): 1.77 µM

CCC(=O)Oc1cc(O)c(C(=O)C(C)C)cc1C
IC50: Not Active

CCC(=O)c1ccc(OC(=O)CI)cc1O
IC50: Not Active

CCCCCC(=O)c1cc(C)c(OC(=O)CI)cc1O
IC50 (read-out: IC50): 3.9 µM

CCCCC(=O)c1ccc(O)cc1O
IC50: Not Active

CC(C)C(=O)Oc1ccc(C(=O)C(C)C)c(O)c1
IC50 (read-out: IC50): 72.5 µM

CCCCCCC(=O)Oc1cc(O)c(C(=O)C(C)C)cc1C
IC50 (read-out: IC50): 5.93 µM

Cc1cc(C(=O)C(C)C)c(O)c(Br)c1OC(=O)c1ccc(F)cc1
IC50 (read-out: IC50): 15.7 µM

CC(C)C(=O)c1ccc(OC(=O)C(C)(C)C)cc1O
IC50 (read-out: IC50): 33.4 µM

Cc1cc(C(=O)C(C)C)c(O)c(Br)c1OC(=O)C(C)(C)C
IC50 (read-out: IC50): 1.86 µM

CCCCC(=O)Oc1cc(O)c(C(=O)C(C)C)cc1C
IC50 (read-out: IC50): 24.7 µM

Cc1cc(C(=O)C(C)C)c(O)c(Br)c1OC(=O)CCl
IC50 (read-out: IC50): 30.9 µM

CC(C)C(=O)c1cc(Br)c(O)cc1O
IC50 (read-out: IC50): 29 µM

CCCCCCCC(=O)c1cc(C)c(O)cc1O
IC50 (read-out: IC50): 35.6 µM

CCCCCCC(=O)c1ccc(O)cc1O
IC50 (read-out: IC50): 81.9 µM

Cc1cc(C(=O)C(C)C)c(O)cc1OC(=O)Cc1ccccc1
IC50 (read-out: IC50): 25.4 µM

CCCCC(=O)c1cc(C)c(O)cc1O
IC50: Not Active

CC(=O)Oc1ccc(C(=O)C(C)C)c(O)c1
IC50: Not Active

Cc1cc(C(=O)C(C)C)c(O)cc1OC(=O)c1cccc(Cl)c1
IC50 (read-out: IC50): 28.1 µM

CC(C)C(=O)c1ccc(OC(=O)CI)cc1O
IC50 (read-out: IC50): 14.4 µM

CCCCCCC(=O)c1cc(C)c(O)cc1O
IC50 (read-out: IC50): 40.9 µM

CC(=O)Oc1c(C)cc(C(=O)C(C)C)c(O)c1Br
IC50 (read-out: IC50): 121 µM

CCC(=O)c1cc(C)c(OC(=O)CI)cc1O
IC50 (read-out: IC50): 6.22 µM

CCCCCC(=O)c1ccc(OC(=O)CI)cc1O
IC50 (read-out: IC50): 8.97 µM
